The subject of assay [1] is Trichomonas vaginalis. In words: Antimicrobial activity against Trichomonas vaginalis ATCC 25258. Type of assay: functional.
The test system of another assay is HeLa. As to the kind of experiment: Cytotoxicity against human HeLa cells by MTT assay. Type of assay: cell-based.
For assay [2], the system named is Trichomonas vaginalis. As to the kind of experiment: Antimicrobial activity against clinical isolate of Trichomonas vaginalis. It is filed as functional.
Assay [3] is described as follows: Antimicrobial activity against Lactobacillus jensenii.
A further assay relates to Spermatozoa. As to the kind of experiment: Spermicidal activity against human spermatozoa at 10 mg/ml by modified sander-cramer assay. Type of assay: functional.

In brackets after ≈: the same amount, converted by molar mass. Activity calls are given as the source filed them. No cut-off for these calls is given here. A value given as a limit tells only on which side of the number the result lay.

Take `C=C[C@H]1CN(CCC)CC[C@H]1CCC(=O)c1ccnc2ccccc12.O=C(O)C(O)C(O)C(=O)O`: the MIC came out at 100 µg/mL with Trichomonas vaginalis [1] and 25 µg/mL against Trichomonas vaginalis [2]. Besides, the EC50 is 276 µg/mL with HeLa and 526 µg/mL in assay [3].

For `C=C[C@H]1CN(CCCC)CC[C@H]1CC(=C)C(=O)c1ccnc2ccccc12.O=C(O)C(O)C(O)C(=O)O`, the MIC against Trichomonas vaginalis [1] was determined as 50 µg/mL; in the assay with Trichomonas vaginalis [2], 3.12 µg/mL. Moreover, the concentration giving a half-maximal response (EC50) came to 138 µg/mL with HeLa and 321 µg/mL in assay [3].

For the compound `C=C[C@H]1CN(CC)CC[C@H]1CC(=C)C(=O)c1ccnc2ccccc12.O=C(O)C(O)C(O)C(=O)O`, the MIC against Trichomonas vaginalis [1] was 50 µg/mL; against Trichomonas vaginalis [2], 12.5 µg/mL. Further, the values for the EC50 (in the assay with HeLa; in assay [3]) were 133 µg/mL and 685 µg/mL, respectively.

In the case of `C=C[C@H]1CNCC[C@H]1CCC(=O)c1ccnc2ccccc12` [CINCHOTOXIN], the MIC entry with Trichomonas vaginalis [1] and in the assay on Trichomonas vaginalis [2] was “inactive” each time. The EC50 in the assay on HeLa was above 1000 µg/mL; in assay [3], 449 µg/mL (≈ 1530 µM).

For `C=C[C@H]1CN(CCCCC)CC[C@H]1CC(=C)C(=O)c1ccnc2ccccc12.O=C(O)C(O)C(O)C(=O)O`, the MIC in the assay on Trichomonas vaginalis [1] was found to be 25 µg/mL; against Trichomonas vaginalis [2], 12.5 µg/mL. Besides, the EC50 turned out to be 104 µg/mL in the assay on HeLa and 130 µg/mL in assay [3].

Regarding `C=C[C@H]1CN2CC[C@H]1C[C@@H]2[C@@H](O)c1ccnc2ccccc12` [CINCHONINE], the MIC entry with Trichomonas vaginalis [1] and with Trichomonas vaginalis [2] was “inactive” each time. The EC50 with HeLa was determined as 697 µg/mL (≈ 2370 µM); in assay [3], 428 µg/mL (≈ 1450 µM).

As for `C=C[C@H]1CN(CCCC)CC[C@H]1CCC(=O)c1ccnc2ccccc12`, in the assay on Spermatozoa, the result was inactive.

As for `Cc1ncc([N+](=O)[O-])n1CCO` [METRONIDAZOLE], the results for the MIC in the assay with Trichomonas vaginalis [1] and against Trichomonas vaginalis [2] were 62.5 µg/mL (≈ 365 µM) and 2 µg/mL (≈ 11.7 µM), respectively. The EC50 (in the assay on HeLa; in assay [3]) was above 1000 µg/mL in each case. For the same compound, the result with Spermatozoa was inactive.

Turning to `C=C[C@H]1CN(CCCCCCCC)CC[C@H]1CCC(=O)c1ccnc2ccccc12`, the outcome in the assay on Spermatozoa was inactive.

Regarding `C=C[C@H]1CN(CC)CC[C@H]1CCC(=O)c1ccnc2ccccc12`, the result in the assay with Spermatozoa was inactive.

Turning to `C=C[C@H]1CN(CCCCCC)CC[C@H]1CCC(=O)c1ccnc2ccccc12`, in the assay on Spermatozoa, the result was inactive.

Take `C=C[C@H]1CN(CC(C)C)CC[C@H]1CCC(=O)c1ccnc2ccccc12`: the outcome in the assay on Spermatozoa was inactive.

Regarding `CCCCCCCCCc1ccc(OCCOCCOCCOCCOCCOCCOCCOCCOCCO)cc1` [NONOXYNOL 9], the MIC in the assay with Trichomonas vaginalis [1] and against Trichomonas vaginalis [2] was 37.5 µg/mL (≈ 60.8 µM) in each case. Also, the EC50 in the assay on HeLa came out at 33.2 µg/mL (≈ 53.8 µM); in assay [3] it was 32.5 µg/mL (≈ 52.7 µM).

With `C=C[C@H]1CN(CCCCC)CC[C@H]1CCC(=O)c1ccnc2ccccc12.O=C(O)C(O)C(O)C(=O)O`, the MIC with Trichomonas vaginalis [1] turned out to be 3.12 µg/mL; in the assay on Trichomonas vaginalis [2], 1.5 µg/mL. Besides, the EC50 in the assay with HeLa worked out at 19.1 µg/mL; in assay [3] it was 76.3 µg/mL.
